Measured values from patent US20260266805A1, “METHOD AND COMPOSITIONS FOR ANALYZING TOXICITY IN ORGANISMS” (priority 2023, published 2026).
Several values for one entry are separate records, joined by “and”; a condition that tells them apart may be missing. Identical values can stand only once. Like-named read-outs stand apart in the source and are kept apart here.

Experiments:
[1] = tested on: C. elegans; assay: Nile red (NR) staining of stored body lipids in vivoChip; type: in vivo; details: co-cultured for the entire 72 hours, versus control worms
Experimental: Liquid culture of C. elegans: Worms are synchronized by bleaching a population of gravid C. elegans using the hypochlorite solution. The embryos are then incubated in a glass tube and rotated for 24 hours at 20° C. About 80 larval 1 (L1) worms are plated into a standard 24-well plastic plate with 500 μl S media and HB101 bacteria. The worms are exposed to chemicals or ingredients during the growth in the liquid media for 3 days in a 20° C. incubator.
Imaging of C. elegans using vivoChip: The C. elegans are fed with bacteria and treated with test chemicals for 72 hours in a 20° C. incubator. […] The vivoChip technology allows capture of bright field or fluorescence images from the worms immobilized inside the microfluidic channels.
Nile red (NR) staining to study body lipids: To stain lipid molecules in the C. elegans body, 30 ng/ml and 50 ng/mL were added to the liquid culture at the L1 stage (a total of 72-hour incubation) and L4 stage animals (a total of 24-hour incubation) and maintained the plate at 20° C. […] Bright-field and fluorescence (red filter set) were acquired to capture worm development and the stored lipids in the C. elegans populations.
Analysis of NR signal: The individual channels were analyzed to identify the NR signal, mainly within the worm intestinal […] (FIG. 23A). […]

[2] = tested on: wild-type N2 worms; assay: Pilot DART imaging of N2 worms treated with FUdR in a small-scale vivoChip; type: in vivo, C. elegans; details: for EC50: Caenorhabditis elegans, N2 L1 larvae, 0-10,000 μM, 72 hrs at 20° C., D1 adults
Experimental: (§1) Strains and maintenance: The study used the N2 wild type (The Caenorhabditis Natural Diversity Resource, CaeNDR) for all experiments except for the initial vivoChip-2× pilot study, where the study used N2 wild types from the Caenorhabditis Genetics Center (CGC). C. elegans were maintained using the standard methods on nematode growth media (NGM) plates seeded with HB101 Escherichia coli bacteria and maintained at 20° C.. Frozen stocks of strains were also maintained at −80° C. and thawed each year to generate a new set of Dauer plates. Sealed Dauer plates for each strain were stored at 16° C. and used to start a fresh maintenance culture every 3 months by chunking to avoid genetic drift. Worms were cultured for >5 generations before using them for assays in a temperature and humidity-controlled environment.
(§2) Worm synchronization and large-scale culture: To prepare large numbers of synchronized L1 stage larvae, P0 larval 4 (L4) worms were transferred to NGM plates and grown for 96 hrs till the F1 generation reached maturity, removing the P0 adults after 48 hrs. D1 animals were treated with an alkaline sodium hypochlorite solution with periods of slow and high-speed shaking on a speed-controllable vortex to fragment their bodies and release the embryos before the bleaching solution was neutralized with 5 washes of M9. The eggs were allowed to develop and hatch in the M9 buffer in a rotating glass conical tube for 24 hrs. Hatched synchronized L1s were filtered through a 20 μm cell filter to remove unhatched eggs and debris, counted the number of total larvae, and adjusted the volume to make a final suspension of L1 larvae at a density of ~100 L1s/20 μl.
(§3) Chemical treatment in liquid culture: The age-synchronized L1 suspension (~100 larvae in 20 μl volumes) was placed in a standard 24-well plate with 480 μl HB101 (OD600^=3.0) suspension in S media. 2.5 μl of chemicals dissolved in H2O, or 1 μL of the chemicals in DMSO were added to the designated wells, keeping solvent concentration constant across all wells. Vehicle control wells received the same volume of each solvent (H2O or 0.2% DMSO). […]
For the initial testing of this hypothesis, this study explored the response of wild-type N2 worms when treated various doses of 5-Fluoro-2′-deoxyuridine (FUdR), a drug commonly used to prevent the development of live offspring in C. elegans experimental cultures. […] The length of all worms in each concentration were manually measured by taking the distance from the head to the tail of each animal. The study counted the total number of embryos and the number of embryos visibly moving within the eggshells in each worm through the time stacks (FIGS. 1C-1E).

[3] = tested on: CL2166 strain; details: CL2166, 5.66 μl of 3% H2O2 in 500 μl culture at 68 hours, 4 hours exposure
Experimental: Image analysis of the C. elegans body and fluorescence signal: The images from the vivoChip platform were cropped into individual channels. The study determined the best focal plane for each worm image (bright-field images) from the stack of images. Individual channel image was analyzed using machine-learning algorithms (developed by vivoVerse) to predict the mask for the worm body inside the individual microfluidic channel. Since several organs in the worm body have a 3D architecture, the study created a maximum-intensity projection of multiple z-slice fluorescence images. Using the maximum projection image, the study then calculated the integrated fluorescence signal within the predicted body mask. The study also estimated the background signal from the pixels outside the body mask and within two successive channel regions. The background signal was used to estimate the corrected total C. elegans fluorescence (CTCF)=integrated density−(area of selected C. elegans body×fluorescence of background readings)
The study treated a transgenic strain expressing GFP when exposed to oxidative stress to quantify the stress level in individual worms using high-resolution imaging to quantify sub-lethal changes in the stress levels.
5.66 μl of 3% H2O2 was added to the 500 μl S media culture with worms at 68 hours to induce oxidative stress. […]

[4] = tested on: C. elegans pharynx; assay: Pharynx size analysis from bright field images in vivoChip; type: in vivo; details: D1 adults, 1.6 μM, DMSO (0.25%), treated from L1 stage
Text: FIGS. 25A-25C depict identifying C. elegans organs and organ structures using high-resolution, bright field, and fluorescence images using the vivoChip platform. […] The schematic represents different organs that could be identified and analyzed using image processing or automated machine learning algorithms.
Identifying internal organs and organ structures of C. elegans using bright field and fluorescence images: Overall morphology of changes in different tissues within a C. elegans body. Due to the dynamic nature of the tissue architectures, it is expected to change over the animal's age. This approach was used to track tissue architecture during early adult stage C. elegans quantitatively (FIG. 25A). As an example, the study analyzed the pharynx within the C. elegans immobilized inside the vivoChip. […] This well-studied organ has been used to screen several therapeutic drugs and to characterize the amount of food intake readouts. […]
C. elegans pharynxes present in the best focal plane from individual channels were manually segmented. […] Once the C. elegans body is detected, specific organs can be characterized using the fluorescence reporter (transgenic strains) or fluorescent dyes (feeding or soaking with dye). For example, C. elegans were fed with FITC-dextran overnight to visualize the green signal using fluorescence imaging of device-immobilized animals. […]

[5] = tested on: C. elegans N2 wild type; assay: vivoChip-24x C. elegans DART assay (72 hr liquid culture from L1, 4D imaging of D1 adults); type: in vivo
Experimental: as §1
Food preparation: HB101 was streaked on a Luria-Bertani (LB) agar plate with streptomycin (antibiotic) and incubated overnight at 37° C. to generate single colonies. One colony was picked and used to inoculate an overnight 5 mL starter culture in LB broth and antibiotic. 200 μl of this starter culture was added to 200 mL LB broth/streptomycin in a 1000 mL baffled flask and incubated for 18 h with 180 rotations per min (rpm) shaking to reach the end of the log growth phase. OD600 was measured using an Implen DiluPhotometer, and the culture was stored at 4° C. Immediately before worm culture, a sufficient volume of the bacterial culture was centrifuged to generate the required volume of OD600^=3.0 food suspension. The LB supernatant was removed and the pellet was resuspended in S media. This density was optimal for growing 80-100 larval 1 (L1) to the day 1 (D1) adult stage in a 500 μl culture volume with food remaining after 72 hrs, but not so much residual food particles as to interfere with imaging or chip operation.
Chemicals: Methylmercury (II) hydroxide (CH3Hg, Alfa Aesar, CAS #1184-57-2) and 5-Fluoro-2′-deoxyuridinc (FUdR, TCI Chemical, CAS #50-91-9) were dissolved in ultrapure water as master stocks at 200× highest treatment concentration. Propiconazole (Sigma Aldrich, CAS #60207-90-1) was dissolved in dimethylsulfoxide (Sigma Aldrich, CAS #67-68-5) as master stocks at 500× highest treatment concentration. The master stocks were transferred into 0.2 ml tubes as single-use aliquots and kept at −80° C. until needed. The 1 μM dose of CH3Hg was prepared by diluting the stock in ultrapure water prior to the treatment. For the dose-response assays, propiconazole was diluted immediately prior to treatment by serial dilution in DMSO to 500× working dilutions as needed, so that the final DMSO concentration in each well would be 0.2%. DMSO was also added to both the solvent control wells and the CH3Hg control wells to 0.2%.
as §2
as §3, with “wells.” for “wells. Vehicle control wells received the same volume of each solvent (H2O or 0.2% DMSO).”

[6] = tested on: Daphnia; details: cited from earlier work
[7] = tested on: Fathead minnow; details: cited from earlier work

NCCc1c[nH]c2ccc(O)cc12 [5-HT, serotonin]
amount of lipids in the body visualized using NR staining [1]: significantly lower amount of lipids

O=c1[nH]c(=O)n([C@H]2C[C@H](O)[C@@H](CO)O2)cc1F [FUdR, 5-Fluoro-2′-deoxyuridine]
EC50 ([2]; read-out: moving embryo parameter, EC50): 26 µM
EC50 ([2]; read-out: reduction in body length, EC50): 316 µM
EC50 ([2]; read-out: reduction in the number of total embryos, EC50): 98 µM
concentration causing growth arrest at stages earlier than could be immobilized in the chip ([2]; N2 C. elegans, 0-10000 μM): ≥ 500 µM

OO [H2O2, hydrogen peroxide]
increase of GFP intensity [3]: ~ 60%

CCOP(=S)(OCC)Oc1nc(Cl)c(Cl)cc1Cl [chlorpyrifos]
total pixels of pharynx compared to vehicle control (DMSO) [4]: reduced

CCCC1COC(Cn2cncn2)(c2ccc(Cl)cc2Cl)O1 (stereo not drawn) [propiconazole]
concentration at which reduced growth rate left worms too small to be immobilized in the microfluidic channels ([5]; N2, 72 hrs): ≥ 333 UM
body length EC10 ([5]; N2, L1 to D1, 72 hrs, Hill fit): 117.5 µM
body volume EC10 ([5]; N2, L1 to D1, 72 hrs, Hill fit): 74.9 µM
developed (moving+folded) embryos EC10 ([5]; N2, L1 to D1, 72 hrs, Hill fit): 10.9 µM
moving embryos EC10 ([5]; N2, L1 to D1, 72 hrs, Hill fit): 10 µM
total embryos EC10 ([5]; N2, L1 to D1, 72 hrs, Hill fit): 48.8 µM
concentration from which embryonic development was affected [6]: ≥ 0.5 mg/L and ≥ 1.46 μM
concentration from which fecundity was affected [7]: ≥ 0.5 mg/L and ≥ 1.46 μM
